Results: PMC4811302, “Human β-defensin 3 contains an oncolytic motif that binds PI(4,5)P2 to mediate tumour cell permeabilisation” (Oncotarget, 2015)
Where no end group is shown, it is not given here.

Experiments:
HUVEC cells = experiment: Flow cytometry-based PI uptake assay, HUVEC; assay type: cell-based, human; conditions: 25 μM HBD-3, 37°C, 30 min, serum-free medium with 0.1% BSA
Method: Cells suspended at 1×10^6 cells/mL in serum-free medium containing 0.1% (w/v) bovine serum albumin (BSA) (Sigma-Aldrich) were treated with HBD-3 at 37°C for 30 min. Nucleic acid stain propidium iodide (PI) was then added to a final concentration of 1 μg/mL and cells subjected to flow cytometry analysis using BD FACSCanto II Flow Cytometer and BD FACSDiva Software v6.1.1 (BD Biosciences, San Jose, CA). For each flow cytometry reading, 10,000 cells, gated appropriately based on forward scattering and side scattering, were recorded. The resultant data were processed using FlowJo software (Tree Star, San Carlos, CA) to determine PI-positivity, which reflects the level of membrane permeabilisation. For lipid inhibition assays, 15 μM HBD-3 was pre-incubated with 50 μM synthetic lipids, including L-α-phosphatidic acid (PA), L-α-phosphatidylcholine (PC), L-α-phosphatidylethanolamine (PE), L-α-phosphatidylserine (PS), L-α-phosphatidylinositol-4-phosphate (PI(4)P), L-α-phosphatidylinositol-3,5-bisphosphate (PI(3,5)P2), L-α-phosphatidylinositol-4,5-bisphosphate (PI(4,5)P2) and L-α-phosphatidylinositol-3,4,5-trisphosphate (PI(3,4,5)P)3. All lipids were sourced from Avanti Polar Lipids, Alabaster, AL. […]

U937 and HeLa cells = experiment: Confocal laser scanning microscopy of membrane blebbing; assay type: cell-based, human; conditions: 15 μM HBD-3, 15 min after addition, PKH67 and PI staining
Method: Live imaging was performed on a Zeiss LSM-780 confocal microscope using a 63× oil immersion objective in a 37°C incubator with 5% CO2. Adherent HeLa cells were cultured overnight on coverslips while suspension U937 cells were immobilised onto 0.01% (w/v) poly-L-lysine-coated coverslips. Both cell types were prepared in serum-free RPMI 1640 medium containing 0.1% (w/v) BSA and 2 μg/mL PI. HBD-3 or BODIPY FL EDA-labeled HBD-3 was added directly to the imaging chamber to final concentration of 15 μM, via a capillary tube. In certain experiments, prior to imaging, cells were pre-stained with the membrane dye PKH67 as per manufacturer's instructions (Sigma-Aldrich) or transfected with expression vectors carrying GFP only or GFP-tagged Pleckstrin homology domain of phospholipase C-delta 1 (GFP-PH(PLCδ1)) (kindly provided by Christina Mitchell, Monash University, Australia), using Lipofectamine 3000 reagent (Invitrogen) as per manufacturer's instructions. For CLSM involving transfections, images were taken as 4×4 tiles over 30 min, and the resultant data for GFP and GFP-PH transfected cells were analysed by counting PI-positive cells.

[1] = ATP-encapsulated liposome leakage assay, PC only; conditions: bioluminescence, normalised to HEPES and Triton X-100
Method: Liposomes were generated as described previously using natural PI(4,5)P2 (porcine brain, in chloroform:methanol:water at 20:9:1 molar ratio) and PC (chicken egg, in chloroform) purchased from Avanti Polar Lipids. PC only or PC:PI(4,5)P2 (95:5 molar ratio) solutions were dried under a stream of nitrogen gas followed by overnight vacuum-drying. The lipid films were rehydrated to a final concentration of 5 mg/mL in 20 mM HEPES (pH 7.2) containing 5 mg/mL adenosine-5-triphosphate disodium salt (ATP; Sigma-Aldrich) at 37°C for 1 h. After three subsequent cycles of freezing (liquid nitrogen) and thawing (25°C), multilamellar liposomes were extruded 15–20 times through a mini-extruder (Avanti Polar Lipids). Free ATP was removed by three centrifugal washes with 20 mM HEPES at 16,500 g prior to the ATP release assay. Liposomes treated with 1% Triton X-100 were included as positive control and assigned as total lysis, whereas HEPES only control served as background reading. The level of ATP release at a particular time point was determined by quotient of the corrected reading (after subtracting background) of the sample at that time point and corrected reading of total lysis, as per the following equation: % Lysist=Samplet−HEPESt/Triton X−HEPES×100

Substance: human β-defensin 3 (GIINTLQKYYCRVRGGRCAVLSCLPKEEQIGKCSTRGRKCCRRKK; not fully specified; cysteine pairing not given here; UniProt P81534 23-67, looked up) [HBD-3, human β-defensin 3, cationic antimicrobial peptide, recombinantly expressed in P. pastoris]
- PI-positive cells (HUVEC cells): 14.5%
- size of membrane blebs formed in PI-positive cells (U937 and HeLa cells): > 10 μm
- ATP release from ATP-encapsulated liposomes [1]: minimally induced ATP release
